Drawing on patent publication US20250179059A1 (The Regents of the University of California, priority 2021, published 2025), this text covers IC50 for 14 compounds.

SMILES strings stand for the structures.

This experiment deals with T1, human BRD4 bromodomain II (Homo sapiens, UniProt O60885).
T1 construct: human BRD4 bromodomain II [based on Genbank NM_058243, residues 349-460]; host or cells: E. coli
As to the kind of experiment: Bromodomain binding assay (AlphaScreen), BRD4 BDII. The settings on record: AlphaScreen assay, Table C2; read-out: BRD4 BDII IC50. Put shortly:
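E. coli-expressed N-terminal His6-tagged human BRD4 BDII (residues 349-460) or BDI (residues 44-170) was preincubated 30 min at room temperature with compound (10-point, 3-fold) in pH 7.5 HEPES buffer, 1% DMSO. Displacement of biotinylated tetra-acetylated H4 1-21 peptide was read by AlphaScreen, and IC50 came from curve fitting.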
In the case of `CC(=O)Nc1c(F)cc(-c2cccc(-c3cccc(N4CCNCC4)c3)c2O)cc1OCC1CC1` [Example 184, N-(3-(cyclopropylmethoxy)-5-fluoro-2′-hydroxy-3″-(piperazin-1-yl)-[1,1′:3′,1″-terphenyl]-4-yl)acetamide], the IC50 lay within 10 to 100 nM.

In the case of `CC(=O)Nc1ccc(-c2cccc(-c3ccc(NC(C)=O)c(N4CCNCC4)c3)c2O)cc1N1CCNCC1` [Example 185, N,N′-(2′-hydroxy-3,3″-di(piperazin-1-yl)-[1,1′:3′,1″-terphenyl]-4,4″-diyl)diacetamide], the IC50 is above 100 nM. The value for `CC(=O)Nc1ccc(-c2cccc(-c3cccc(N4CCC(CN)CC4)c3)c2O)cc1F` [Example 186, N-(3″-(4-(aminomethyl)piperidin-1-yl)-3-fluoro-2′-hydroxy-[1,1′:3′,1″-terphenyl]-4-yl)acetamide] was above 100 nM; that for `CC(=O)Nc1ccc(-c2cccc(-c3cc(N4CCNCC4)ccc3F)c2O)cc1F` [Example 187, N-(2″,3-difluoro-2′-hydroxy-5″-(piperazin-1-yl)-[1,1′:3′,1″-terphenyl]-4-yl)acetamide] was 10 to 100 nM; that for `O=C1CCCN1c1ccc(-c2cccc(-c3ccccc3)c2O)cc1F` [Example 188, 1-(3-fluoro-2′-hydroxy-[1,1′:3′,1″-terphenyl]-4-yl)pyrrolidin-2-one] was above 100 nM. With `O=C1CCCN1c1ccc(-c2cccc(-c3ccncc3)c2O)cc1F` [Example 190, 1-(3-fluoro-2′-hydroxy-3′-(pyridin-4-yl)-[1,1′-biphenyl]-4-yl)pyrrolidin-2-one], the concentration for half-maximal inhibition (IC50) is 10 to 100 nM. For `CC(=O)Nc1ccc(-c2cccc(-c3cccc(N4CCNCC4=O)c3)c2O)cc1F` [Example 191, N-(3-fluoro-2′-hydroxy-3″-(2-oxopiperazin-1-yl)-[1,1′:3′,1″-terphenyl]-4-yl)acetamide] the value was above 100 nM. As for `CC(=O)Nc1ccc(-c2cccc(-c3cccc(N4CCC5(CCNC5)CC4)c3)c2O)cc1F` [Example 192, N-(3-fluoro-2′-hydroxy-3″-(2,8-diazaspiro[4.5]decan-8-yl)-[1,1′:3′,1″-terphenyl]-4-yl)acetamide], the IC50 is 10 to 100 nM. For the compound `CC(=O)Nc1ccc(-c2cccc(-c3cccc(N4CC5(CCNC5)CC4=O)c3)c2O)cc1F` (centres unmarked) [Example 194, N-(3-fluoro-2′-hydroxy-3″-(3-oxo-2,7-diazaspiro[4.4]nonan-2-yl)-[1,1′:3′,1″-terphenyl]-4-yl)acetamide], the IC50 fell in the range of 1 to 10 nM. For `CC(=O)Nc1ccc(-c2cccc(-c3cccc(N4CCC5(CCNCC5)CC4)c3)c2O)cc1F` [Example 195, N-(3-fluoro-2′-hydroxy-3″-(3.9-diazaspiro[5.5]undecan-3-yl)-[1,1′:3′,1″-terphenyl]-4-yl)acetamide] the value was 10 to 100 nM. On to `CC(=O)Nc1ccc(-c2cccc(-c3cccc(N4CCC5(CC4)CNC5)c3)c2O)cc1F` [Example 196, N-(3-fluoro-2′-hydroxy-3″-(2,7-diazaspiro[3.5]nonan-7-yl)-[1,1′:3′,1″-terphenyl]-4-yl)acetamide], for which the IC50 was 10 to 100 nM. As for `O=C1NCCN1c1ccc(-c2cccc(-c3cccc(N4CCNCC4)c3)c2O)cc1F` [Example 197, 1-(3-fluoro-2′-hydroxy-3″-(piperazin-1-yl)-[1,1′:3′,1″-terphenyl]-4-yl)imidazolidin-2-one], the IC50 lay in the range of 1 to 10 nM.

Consider `CC(=O)Nc1ccc(-c2cccc(-c3ccnc(N4CCC(CO)CC4)c3)c2O)cc1F` [Example 198, N-(3-fluoro-2′-hydroxy-3′-(2-(4-(hydroxymethyl)piperidin-1-yl)pyridin-4-yl)-[1,1′-biphenyl]-4-yl)acetamide], for which the IC50 was in the range of 1 to 10 nM. The value for `CC(=O)Nc1ccc(-c2cccc(-c3cccc(N4CC(C)NC(C)C4)c3)c2O)cc1F` (centres unmarked) [Example 200, N-(3″-(3,5-dimethylpiperazin-1-yl)-3-fluoro-2′-hydroxy-[1,1′:3′,1″-terphenyl]-4-yl)acetamide] was 1 to 10 nM.
